US10273236B2, “Macrocyclic factor XIa inhibitors bearing heterocyclic groups” (Bristol-Myers Squibb Company, priority 2014, dated 2019)

Key:
[1] = molecular target: T1, purified human Factor XIa (Homo sapiens, UniProt P03951); experiment: Factor XIa inhibition assay, chromogenic substrate S-2366 (Ki); assay type: biochemical
T1 construct: purchased Haematologic Technologies
Description: (§1) The effectiveness of compounds of the present invention as inhibitors of the coagulation Factors XIa, VIIa, IXa, Xa, XIIa, plasma kallikrein or thrombin, can be determined using a relevant purified serine protease, respectively, and an appropriate synthetic substrate. The rate of hydrolysis of the chromogenic or fluorogenic substrate by the relevant serine protease was measured both in the absence and presence of compounds of the present invention. […] A decrease in the rate of absorbance or fluorescence change in the presence of inhibitor is indicative of enzyme inhibition. Such methods are known to one skilled in the art. The results of this assay are expressed as the inhibitory constant, Ki.
Factor XIa determinations were made in 50 mM HEPES buffer at pH 7.4 containing 145 mM NaCl, 5 mM KCl, and 0.1% PEG 8000 (polyethylene glycol; JT Baker or Fisher Scientific). Determinations were made using purified human Factor XIa at a final concentration of 25-200 pM (Haematologic Technologies) and the synthetic substrate S-2366 (pyroGlu-Pro-Arg-pNA; Chromogenix or AnaSpec) at a concentration of 0.0002-0.001 M.
(§2) Values of Ki were determined by allowing the protease to react with the substrate in the presence of the inhibitor.
(§3) Reactions were allowed to go for periods of 20-180 minutes (depending on the protease) and the velocities (rate of absorbance or fluorescence change versus time) were measured.
(§4) The following relationships were used to calculate Ki values: (Vmax*S)/(Km+S) (vo−vs)/vs=I/(Ki(1+S/Km)) for a competitive inhibitor with one binding site; or vs/vo=A+((B−A)/1+((IC50/(I)^n))); and Ki=IC50/(1+S/Km) for a competitive inhibitor where: […]

[2] = molecular target: T2, purified human plasma kallikrein (Homo sapiens, UniProt P03952); experiment: Plasma kallikrein inhibition assay, chromogenic substrate S-2302 (Ki); assay type: biochemical
T2 construct: Plasma prekallikrein is a zymogen of a trypsin-like serine protease; purchased Enzyme Research Laboratories
T2 sequence (P03952 391-638 limits assumed): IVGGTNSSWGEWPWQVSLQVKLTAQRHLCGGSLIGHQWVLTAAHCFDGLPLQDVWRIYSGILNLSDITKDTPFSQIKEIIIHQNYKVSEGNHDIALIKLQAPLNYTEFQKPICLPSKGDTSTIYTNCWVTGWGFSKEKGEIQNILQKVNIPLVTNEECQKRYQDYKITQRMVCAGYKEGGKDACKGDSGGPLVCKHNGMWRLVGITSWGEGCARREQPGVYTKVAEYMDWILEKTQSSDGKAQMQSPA
T2 sequence (P03952 20-390 partner limits assumed): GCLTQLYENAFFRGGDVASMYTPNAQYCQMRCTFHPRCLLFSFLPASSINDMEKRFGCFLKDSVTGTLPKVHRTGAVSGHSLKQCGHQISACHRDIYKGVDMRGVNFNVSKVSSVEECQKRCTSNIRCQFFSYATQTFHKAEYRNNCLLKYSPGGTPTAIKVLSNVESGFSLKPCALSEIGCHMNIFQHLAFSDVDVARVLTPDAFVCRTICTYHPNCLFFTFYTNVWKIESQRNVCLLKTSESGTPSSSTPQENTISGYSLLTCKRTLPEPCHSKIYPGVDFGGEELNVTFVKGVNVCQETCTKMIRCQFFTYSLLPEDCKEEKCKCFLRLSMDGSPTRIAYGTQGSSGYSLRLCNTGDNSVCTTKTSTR
Description: as §1
Plasma kallikrein determinations were made in 0.1 M sodium phosphate buffer at a pH of 7.5 containing 0.1-0.2 M sodium chloride and 0.5% PEG 8000. Determinations were made using purified human plasma kallikrein (Enzyme Research Laboratories) at a final assay concentration of 200 pM and the synthetic substrate S-2302 (H-(D)-Pro-Phe-Arg-pNA; Chromogenix) at a concentration of 0.00008-0.0004 M.
as §2, §3, §4

T1 sequence (P03951 388-625 limits assumed): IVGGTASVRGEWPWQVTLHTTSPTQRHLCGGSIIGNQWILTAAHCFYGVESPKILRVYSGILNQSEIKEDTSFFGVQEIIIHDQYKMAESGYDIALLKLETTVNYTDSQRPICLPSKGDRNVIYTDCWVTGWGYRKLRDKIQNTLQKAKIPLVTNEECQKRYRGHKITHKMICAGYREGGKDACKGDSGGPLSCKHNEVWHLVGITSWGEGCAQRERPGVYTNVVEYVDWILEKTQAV
T1 sequence (P03951 19-387 partner limits assumed): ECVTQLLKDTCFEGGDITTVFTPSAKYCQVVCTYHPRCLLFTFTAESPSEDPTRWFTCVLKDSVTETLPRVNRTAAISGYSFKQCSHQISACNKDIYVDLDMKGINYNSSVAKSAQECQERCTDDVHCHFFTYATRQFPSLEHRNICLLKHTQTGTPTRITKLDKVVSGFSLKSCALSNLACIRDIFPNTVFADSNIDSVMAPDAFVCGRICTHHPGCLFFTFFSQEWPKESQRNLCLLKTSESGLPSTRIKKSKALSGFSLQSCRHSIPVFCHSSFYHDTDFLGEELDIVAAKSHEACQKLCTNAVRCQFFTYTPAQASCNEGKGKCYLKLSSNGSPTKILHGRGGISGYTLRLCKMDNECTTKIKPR

Row | SMILES | Ki [1] | Ki [2]
1 | C[C@@H]1CCC[C@H](N2CCC(c3cc(Cl)ccc3-n3cc(Cl)nn3)=CC2=O)c2cc(ccn2)-c2c(cnn2CCOC(C)(C)C)NC1=O [Example 34, (9R,13S)-3-[2-(tert-butoxy)ethyl]-13-{4-[5-chloro-2-(4-chloro-1H-1,2,3-triazol-1-yl)phenyl]-6-oxo-1,2,3,6-tetrahydropyridin-1-yl}-9-methyl-3,4,7,15-tetraazatricyclo[12.3.1.0^2,6]octadeca-1(18),2(6),4,14,16-pentaen-8-one] | 1.1 nM | 50 nM
2 | C[C@@H]1CCC[C@H](N2CCC(c3c(F)ccc(Cl)c3F)=CC2=O)c2cc(ccn2)-c2nn(-c3ccnc(O)c3)cc2NC1=O [Example 9, (9R,13S)-13-[4-(3-chloro-2,6-difluorophenyl)-6-oxo-1,2,3,6-tetrahydropyridin-1-yl]-4-(2-hydroxypyridin-4-yl)-9-methyl-3,4,7,15-tetraazatricyclo[12.3.1.0^2,6]octadeca-1(18),2,5,14,16-pentaen-8-one] | 14 nM | 14 nM
3 | C[C@@H]1CCC[C@H](N2CCC(c3cc(Cl)ccc3-c3cnn(C(F)F)c3)=CC2=O)c2cc(ccn2)-c2c(cnn2C)NC1=O [Example 38, (9R,13S)-13-(4-{5-chloro-2-[1-(difluoromethyl)-1H-pyrazol-4-yl]phenyl}-6-oxo-1,2,3,6-tetrahydropyridin-1-yl)-3,9-dimethyl-3,4,7,15-tetraazatricyclo[12.3.1.0^2,6]octadeca-1(18),2(6),4,14,16-pentaen-8-one] | 1.8 nM | 120 nM
4 | C[C@@H]1CCC[C@H](N2CCC(c3c(C(C)(F)F)ccc(Cl)c3F)=CC2=O)c2cc(ccn2)-c2c(cnn2C)NC1=O [Example 33, (9R,13S)-13-{4-[3-chloro-6-(1,1-difluoroethyl)-2-fluorophenyl]-6-oxo-1,2,3,6-tetrahydropyridin-1-yl}-3,9-dimethyl-3,4,7,15-tetraazatricyclo[12.3.1.0^2,6]octadeca-1(18),2(6),4,14,16-pentaen-8-one] | 5.7 nM | 50 nM
5 | [2H]C([2H])([2H])n1ncc2c1-c1ccnc(c1)[C@@H](N1CCC(c3c(C(F)(F)F)ccc(Cl)c3F)=CC1=O)CCC[C@@H](C)C(=O)N2 [Example 18, (9R,13S)-13-{4-[3-chloro-2-fluoro-6-(trifluoromethyl)phenyl]-6-oxo-1,2,3,6-tetrahydropyridin-1-yl}-3-(^2H3)methyl-9-methyl-3,4,7,15-tetraazatricyclo[12.3.1.0^2,6]octadeca-1(18),2(6),4,14,16-pentaen-8-one] | 2.8 nM | 30 nM
6 | C[C@H]1C(=O)Nc2cnn(C)c2-c2cc(F)cc(c2)[C@@H](N2CCC(c3cc(Cl)ccc3-n3cc(Cl)nn3)=CC2=O)CCC1F (stereo partly drawn) [Example 50, (9S,13S)-13-{4-[5-chloro-2-(4-chloro-1H-1,2,3-triazol-1-yl)phenyl]-6-oxo-1,2,3,6-tetrahydropyridin-1-yl}-10,16-difluoro-3,9-dimethyl-3,4,7-triazatricyclo[12.3.1.0^2,6]octadeca-1(18),2(6),4,14,16-pentaen-8-one] | 0.1 nM | 8 nM
7 | CCn1ncc2c1-c1ccnc(c1)[C@@H](N1CCC(c3cc(Cl)ccc3-n3ccnn3)=CC1=O)CCC[C@@H](C)C(=O)N2 (stereo in doubt) [Example 7, 13-{4-[5-chloro-2-(1H-1,2,3-triazol-1-yl)phenyl]-6-oxo-1,2,3,6-tetrahydropyridin-1-yl}-3-ethyl-9-methyl-3,4,7,15-tetraazatricyclo[12.3.1.0^2,6]octadeca-1(18),2(6),4,14,16-pentaen-8-one] | – | 41 nM
8 | C[C@@H]1CCC[C@H](N2CCC(c3cc(Cl)ccc3-n3ccnn3)=CC2=O)c2cc(ccn2)-c2c(cnn2CC(F)F)NC1=O (stereo in doubt) [Example 8, 13-{4-[5-chloro-2-(1H-1,2,3-triazol-1-yl)phenyl]-6-oxo-1,2,3,6-tetrahydropyridin-1-yl}-3-(2,2-difluoroethyl)-9-methyl-3,4,7,15-tetraazatricyclo [12.3.1.0^2,6]octadeca-1(18),2(6),4,14,16-pentaen-8-one] | – | 90 nM
